Earlier results, collected in US20120149888A1, “SYNTHESIS OF ARA-2'-O-METHYL-NUCLEOSIDES, CORRESPONDING PHOSPHORAMIDITES AND OLIGONUCLEOTIDES INCORPORATING NOVEL MODIFICATIONS FOR BIOLOGICAL APPLICATION IN THERAPEUCTICS, DIAGNOSTICS, G- TETRAD FORMING OLIGONUCLEOTIDES AND APTAMERS” (priority 2009, published 2012).
Entries after “also recorded” stand apart in the source; their conditions may differ. Like-named read-outs stand apart in the source and are kept apart here.

Experiments:
[1] = test system: L1210 cells
[2] = test system: L1210/CA; conditions: 1β-D-Arabinofuranosylcytosine-resistant L1210/CA
[3] = test system: ara-C-resistant neoplasms
[4] = test system: L1210/ara-C
[5] = rhesus monkey, in vivo
[6] = test system: explants of intact rat colonic mucosa
[7] = in vivo
[8] = test system: Ehrlich ascites resistant to 5-fluorodeoxyuridine (FUdR); conditions: 5-Fluorodeoxyuridine-resistant Ehrlich ascites
[9] = molecular target: nucleoside transport (thymidine uptake); conditions: for Ki: read-out: Ki value for inhibition of thymidine uptake
[10] = test system: Ehrlich ascites (EAC-R2); conditions: 6-Methyl thiopurine ribonucleoside-resistant Ehrlich ascites (EAC-R2)
[11] = test system: P815-E176
[12] = test system: L1210/MP(III)
[13] = test system: equilibrative NBMPR-sensitive nucleoside transporter (es); conditions: growth-inhibitory concentrations
[14] = test system: Ehrlich ascites (AZU 1); conditions: 6-Azauracil-resistant Ehrlich ascites (AZU 1)
[15] = test system: 11 human tumor xenografts; conditions: 11 xenografts
[16] = test system: L1210 TG/R
[17] = test system: L5178Y/ara-C
[18] = test system: AKR/r-AzCR; conditions: 5-Azacytidine-resistant AKR/r-AzCR
[19] = test system: P815/FU; conditions: 5-Fluorouracil-resistant P815/FU
[20] = test system: 36 human tumor cell lines
[21] = test system: human nasopharyngeal KB cells
[22] = test system: mouse leukemia L1210; conditions: L1210 cells
[23] = test system: ovarian cancer; conditions: previously treated patients
[24] = 5-Fluorouracil-resistant P815-E176
[25] = 6-Mercaptopurine-resistant L1210/MP(III)
[26] = Thioguanine-resistant L1210 TG/R

COCC(COc1nc(N2CCCCC2)c2nc(OCC(COC)OC)nc(N3CCCCC3)c2n1)OC (stereo not shown) [NU3059]
growth inhibitory activity of the TS inhibitor CB3717 ([1]; analogue 10 microM): enhance

CCOC(=O)NO [Hydroxycarbamic Acid ethyl ester]
Response to chemotherapeutic drugs: Same as parent line [2]: Hydroxycarbamic

Nc1n[nH]c(N)n1 [Guanazole]
cross-resistance of ara-C-resistant neoplasms to the drug ([3]; in vivo): no cross-resistance | Response to chemotherapeutic drugs: Same as parent line ([4]; in vivo): Guanazole TSC

NC(=S)NN=Cc1ccccn1 [TSC, pyridine-2-carboxaldehyde thiosemicarbazone]
cross-resistance of ara-C-resistant neoplasms to the drug ([3]; several other ara-C-resistant neoplasms): no cross-resistance | Response to chemotherapeutic drugs: Same as parent line ([4]; L1210/ara-C (Schabel et al., 1971)): Guanazole TSC

Nc1ncn([C@@H]2O[C@H](CO)[C@@H](O)[C@@H]2O)c(=O)n1 [AAC, Arabinosyl-5-azacytosine]
CSF clearance exceeds the rate of CSF bulk flow [5]: 5 fold | greater CSF drug exposure, intrathecal or intraventricular versus systemic [5]: 50 fold | area under the CSF concentration x time curve, intraventricular 10 mg versus intravenous 200 mg/kg ([5]; 200 mg/kg): fifty fold | peak CSF concentration, intraventricular 10 mg versus intravenous 200 mg/kg ([5]; 200 mg/kg): one hundred | CSF clearance ([5]; icv or intrathecal, 10 mg): 0.2 mL/min

O=c1[nH]c(=O)n([C@H]2C[C@H](O)[C@@H](CO)O2)cc1F [Compound 5-FUdR]
incorporation of tritiated TdR into DNA [6]: not altered | levels of tritiated deoxyuridine [6]: reduced

NC(=O)c1csc([C@@H]2O[C@H](CO)[C@@H](O)[C@H]2O)n1 [tiazofurin, 2-B-D-Ribofuranosylthiazole-4-Carboxamide]
antitumor activity [7]: No antitumor activity was observed | dose limiting toxicities [7]: pericarditis and clinical symptoms suggestive of a more generalized serositis | maximally tolerated dose [7]: 1650 mg/m2 | patients with sustained depletion of guanine nucleotide pools [7]: 1 of 6

O=c1[nH]c(=O)n([C@H]2C[C@H](O)[C@@H](CO)O2)cc1C(F)(F)F [Compound F3TdR, 5-trifluoromethyl-2′-deoxyuridine]
Response to chemotherapeutic drugs: Cross-resistant [8]: cross-resistant; also recorded: F3TdR

OCCN(CCO)c1nc(N2CCCCC2)c2nc(N(CCO)CCO)nc(N3CCCCC3)c2n1 [dipyridamole]
Ki [9]: 280 nM | reduction of the LC90 of nolatrexed ([1]; absence of salvageable thymidine): > threefold | incorporation of tritiated TdR into DNA [6]: reduced

Nc1ncnc2c([C@@H]3O[C@H](CO)[C@@H](O)[C@H]3O)[nH]nc12 [Formycin]
Response to chemotherapeutic drugs: Cross-resistant [10]: Formycin

O=NN(CCCl)C(=O)NCCCl [BCNU, 1,3-bis(2-chloroethyl)-1-nitrosourea]
Response to chemotherapeutic drugs: Same as parent line [2]: BCNU

Nc1nc2nc[nH]c2c(=S)[nH]1 [Thioguanine]
Response to chemotherapeutic drugs: Same as parent line [11, 24]: Thioguanine

CO[C@@]12[C@H](COC(N)=O)C3=C(C(=O)C(C)=C(N)C3=O)N1C[C@@H]1N[C@@H]12 [mitomycin C]
Response to chemotherapeutic drugs: collaterally sensitive ([12]; mouse, in vivo): collaterally sensitive

Cc1c(CNc2ccc(C(=O)N[C@@H](CC(=O)O)C(=O)O)cc2)ccc2ncnc(N)c12 [Methasquin]
Response to chemotherapeutic drugs: collaterally sensitive [12, 25]: Methasquin

Cc1cn([C@H]2C[C@H](O)[C@@H](CO)O2)c(=O)[nH]c1=O [TdR, Thymidine]
expression of es [13]: no significant effect

Neocarzinostatin
Response to chemotherapeutic drugs: collaterally sensitive ([12]; mouse, in vivo): collateral sensitivity; also recorded: Neocarzinostatin

O=c1[nH]cc(F)c(=O)[nH]1 [5-fluorouracil]
Response to chemotherapeutic drugs: collaterally sensitive [14]: 5-Fluorouracil | Response to chemotherapeutic drugs: collaterally sensitive ([14]; listed as FU): collaterally sensitive | expression of es [13]: increases | Response to chemotherapeutic drugs: Cross-resistant [8]: 5-Fluorouracil | incorporation of tritiated TdR into DNA [6]: not altered | levels of tritiated deoxyuridine [6]: reduced | human tumors with potent inhibition [15]: only one tumor | Response to chemotherapeutic drugs: Cross-resistant [16, 26]: 5-Fluorouracil

COC(COC(N)=O)C1=C(N2CC2)C(=O)C(C)=C(N2CC2)C1=O (stereo not shown) [Carbazilquinone]
cross-resistance of ara-C-resistant neoplasms to the drug ([3]; in vivo): no cross-resistance | Response to chemotherapeutic drugs: collaterally sensitive ([12]; mouse, in vivo): collateral sensitivity; also recorded: Carbazilquinone | Response to chemotherapeutic drugs: Same as parent line ([17]; in vivo): Carbazilquinone

Nc1ncn([C@H]2C[C@H](O)[C@@H](CO)O2)c(=O)n1 [AzCdR, 5-aza-2′-deoxycytidine]
Response to chemotherapeutic drugs: Cross-resistant [18]: cross-resistant; also recorded: AzCdR

[N-]=[N+]=CC(=O)OC[C@H](N)C(=O)O [azaserine]
Response to chemotherapeutic drugs: Same as parent line [11, 24]: Azaserine | Response to chemotherapeutic drugs: collaterally sensitive [12, 25]: collaterally sensitive | Response to chemotherapeutic drugs: Same as parent line [16, 26]: not altered; also recorded: azaserine

Nc1nc(N)c2c(Cl)c(CNc3ccc(C(=O)N[C@@H](CC(=O)O)C(=O)O)cc3)ccc2n1 [Chlorasquin]
Response to chemotherapeutic drugs: collaterally sensitive ([12]; mouse, in vivo): Chlorasquin

CN(Cc1cnc2nc(N)nc(N)c2n1)c1ccc(C(=O)N[C@@H](CCC(=O)O)C(=O)O)cc1 [Methotrexate]
Response to chemotherapeutic drugs: Same as parent line [11, 24]: Methotrexate | Response to chemotherapeutic drugs: collaterally sensitive [12, 25]: collaterally sensitive | Response to chemotherapeutic drugs: Same as parent line [16, 26]: Methotrexate | Response to chemotherapeutic drugs: Same as parent line ([16]; Thioguanine-resistant L1210 TG/R, listed as methotrexate): not altered | Response to chemotherapeutic drugs: Same as parent line ([17]; L5178Y/ara-C): Methotrexate

N[C@@H](Cc1ccc(N(CCCl)CCCl)cc1)C(=O)O [L-PAM, L-phenylalanine mustard methanol]
Response to chemotherapeutic drugs: collaterally sensitive ([11]; in vivo): L-PAM | Response to chemotherapeutic drugs: collaterally sensitive ([16]; mouse, in vivo): L-PAM

O=P1(N(CCCl)CCCl)NCCCO1 (stereo not shown) [Cytoxan]
Response to chemotherapeutic drugs: Same as parent line ([11]; in vivo): no change in response; also recorded: Cytoxan | Response to chemotherapeutic drugs: Same as parent line ([16]; mouse, in vivo): no change in response; also recorded: Cytoxan | Response to chemotherapeutic drugs: Same as parent line ([17]; in vivo): Cytoxan

C[C@@]1(CO)[C@H](O)CC[C@@]2(C)[C@H]1CC[C@H]1C[C@@H]3C[C@@]12CC[C@]3(O)CO [aphidicolin]
expression of es [13]: no significant increase

COc1ccc(CNc2nc(N(CCO)CCO)nc3c(NCc4ccc(OC)cc4)nc(N(CCO)CCO)nc23)cc1 [NU3076]
inhibition of thymidine uptake in the presence of AGP ([9]; AGP 5 mg ml(−1)): not significantly affected | Ki [9]: 100 nM | FU cytotoxicity [1]: significant potentiation | reduction of the LC90 of nolatrexed [1]: > threefold

Nc1nc(=O)n([C@@H]2O[C@H](CO)[C@@H](O)[C@@H]2O)cc1F [Ara-FC, 1β-D-arabinofuranosyl-5-fluorocytosine]
Response to chemotherapeutic drugs: Same as parent line [19]: Ara-FC | Response to chemotherapeutic drugs: Same as parent line ([19]; listed as ara-FC): retained the same sensitivity

S=P(N1CC1)(N1CC1)N1CC1 [Thio-TEPA, triethylenethiophosphoramide]
Response to chemotherapeutic drugs: Cross-resistant ([11]; in vivo): cross-resistance; also recorded: Thio-TEPA | Response to chemotherapeutic drugs: collaterally sensitive ([16]; mouse, in vivo): Thio-TEPA

C#C[C@@]1(O)[C@@H](CO)O[C@@H](n2ccc(=O)[nH]c2=O)[C@@H]1O [EUrd, 1-(3-C-ethynyl-beta-D-ribo-pentofuranosyl)uracil]
1050 values [20]: nanomolar to micromolar range | IC50 [21]: 29 nM | IC50 [22]: 130 nM | human tumors with potent inhibition [15]: 8 of 11

O=c1cnn([C@@H]2O[C@H](CO)[C@@H](O)[C@H]2O)c(=O)[nH]1 [Compound 6-Azauridine, 6-Azauridine]
Response to chemotherapeutic drugs: Cross-resistant [14]: 6-Azauridine | Response to chemotherapeutic drugs: Cross-resistant ([14]; listed as 6-azauridine): cross-resistant

CN(Cc1cnc2nc(N)[nH]c(=O)c2n1)c1c(Cl)cc(C(=O)NC(CCC(=O)O)C(=O)O)cc1Cl (stereo not shown) [DCM, 3′,5′-dichloromethopterin]
Response to chemotherapeutic drugs: Same as parent line [2]: DCM

gemcitabine-cisplatin
response, doublets [23]: 53%

B1: L-asparaginase: L-asparaginase, enzyme drug (protein, UniProt P00805 23-348, looked up)
L-asparaginase 2: LPNITILATGGTIAGGGDSATKSNYTVGKVGVENLVNAVPQLKDIANVKGEQVVNIGSQDMNDNVWLTLAKKINTDCDKTDGFVITHGTDTMEETAYFLDLTVKCDKPVVMVGAMRPSTSMSADGPFNLYNAVVTAADKASANRGVLVVMNDTVLDGRDVTKTNTTDVATFKSVNYGPLGYIHNGKIDYQRTPARKHTSDTPFDVSKLNELPKVGIVYNYANASDLPAKALVDAGYDGIVSAGVGNGNLYKSVFDTLATAAKTGTAVVRSSRVPTGATTQDAEVDDAKYGFVASGTLNPQKARVLLQLALTQTKDPQQIQQIFNQY
Response to chemotherapeutic drugs: Cross-resistant ([17]; L5178Y/ara-C): L-asparaginase | Response to chemotherapeutic drugs: collaterally sensitive ([17]; L5178Y/ara-C): collaterally sensitive
